Reference: patent US7923438B2 (priority 2006, dated 2011)
Where two headings read alike, the source gives them in different places.

Key:
Assay type in all cases: cell-based
[1] = test system: Mycobacterium smegmatis (FH 6498); assay: Serial dilution test for MIC, Mueller-Hinton broth
[2] = test system: S. aureus (control strain); assay: Serial dilution test for MIC, Mueller-Hinton broth (control strain)
[3] = test system: Nocardia abscessus (BAA 279); assay: microbe, parasite or virus in culture
[4] = test system: Mycobacterium phlei (ATCC 1298); assay: microbe, parasite or virus in culture
[5] = test system: Corynebacterium diphtheriae (ATCC 27010); assay: microbe, parasite or virus in culture
[6] = test system: Nocardia brasiliensis (ATCC 19296); assay: microbe, parasite or virus in culture
[7] = serial dilution, 48 hours at 37° C., approximately 10 Ex 6 CFU/ml
[8] = 6.25 μg per disc (17 nmol per disc), 48 hrs at 37° C.

In the case of CCCCCCCCCCCCCCCOP1(=O)OC[C@H]2COC(=O)C2=C(C)O1 (stereo partly shown) [Cyclipostin R], the “minimum inhibitory concentration (MIC), Mycobacterium smegmatis (FH 6498)” value (shortened to “minimum inhibitory concentration … (FH 6498)”) [1] is reported as under 0.5 and the “minimum inhibitory concentration (MIC), S. aureus (control strain)” value [2] is reported as over 64.
For CCCC1=C2C(=O)OC[C@@H]2COP(=O)(OCCCCCCCCCCCCCC(C)C)O1 (stereo partly shown) [Cyclipostin T2], the “minimum inhibitory concentration … (FH 6498)” value [1] was under 0.5, the “Inhibition zone size, Nocardia abscessus (BAA 279)” value (from here on “Inhibition zone size … (BAA 279)”) [3] was 10 mm and the “minimum inhibitory concentration (MIC), S. aureus (control strain)” value [2] was over 64. For the same compound, the “Inhibition zone size, Mycobacterium phlei (ATCC 1298)” value (“Inhibition zone size … (ATCC 1298)” for short) [4] was 47 mm, the “Inhibition zone size, Corynebacterium diphtheriae (ATCC 27010)” value (“Inhibition zone size … (ATCC 27010)” for short) [5] was 20 mm and the “Inhibition zone size, Nocardia brasiliensis (ATCC 19296)” value (from here on “Inhibition zone size … (ATCC 19296)”) [6] was 39 mm.
For CO[C@H]1/C=C/O[C@@]2(C)Oc3c(C)c(O)c4c(O)c(c(/C=N/N5CCN(C)CC5)c(O)c4c3C2=O)NC(=O)/C(C)=C\C=C\[C@H](C)[C@H](O)[C@@H](C)[C@@H](O)[C@@H](C)[C@H](OC(C)=O)[C@@H]1C [Rifampicin, reference compound], the zone of inhibition at 30 µg/disc ([3]; Nocardia abscessus, BAA279, 30 μg per disc (36 nmol per disc), 48 hrs at 37° C., read-out: Inhibition zone size, Nocardia abscessus (BAA 279)) was 12 mm, the zone of inhibition at 30 µg/disc ([4]; Mycolicibacterium phlei, ATCC1298, 30 μg per disc (36 nmol per disc), 48 hrs at 37° C., read-out: Inhibition zone size, Mycobacterium phlei (ATCC 1298)) was 55 mm and the zone of inhibition at 30 µg/disc ([5]; Corynebacterium diphtheriae, ATCC27010, 30 μg per disc (36 nmol per disc), 48 hrs at 37° C., read-out: Inhibition zone size, Corynebacterium diphtheriae (ATCC 27010)) was 47 mm. It also gave a zone of inhibition at 30 µg/disc ([6]; Nocardia brasiliensis, ATCC19296, 30 μg per disc (36 nmol per disc), 48 hrs at 37° C., read-out: Inhibition zone size, Nocardia brasiliensis (ATCC 19296)) of 10 mm.
For CCCCCCCCCCCCCCCCOP1(=O)OCC2COC(=O)C2=C(CCC)O1 (stereo not shown) [Cyclipostin T], the “minimum inhibitory concentration … (FH 6498)” value [1, 7] was under 0.5, the zone of inhibition at 20 µg/disc ([3]; Nocardia abscessus, BAA279, 20 μg per disc, 48 hrs at 37° C., read-out: Inhibition zone size, Nocardia abscessus (BAA 279)) was 9 mm and the “minimum inhibitory concentration (MIC), S. aureus (control strain)” value [2, 7] was over 64. The zone of inhibition at 20 µg/disc ([4]; Mycolicibacterium phlei, ATCC1298, 20 μg per disc, 48 hrs at 37° C., read-out: Inhibition zone size, Mycobacterium phlei (ATCC 1298)) was 30 mm, the zone of inhibition at 20 µg/disc ([5]; Corynebacterium diphtheriae, ATCC27010, 20 μg per disc, 48 hrs at 37° C., read-out: Inhibition zone size, Corynebacterium diphtheriae (ATCC 27010)) was 12 mm and the zone of inhibition at 20 µg/disc ([6]; Nocardia brasiliensis, ATCC19296, 20 μg per disc, 48 hrs at 37° C., read-out: Inhibition zone size, Nocardia brasiliensis (ATCC 19296)) was 38 mm.
CC1(C)S[C@@H]2[C@H](NC(=O)Cc3ccccc3)C(=O)N2[C@H]1C(=O)O [Penicillin G, reference compound] was tested, and the “Inhibition zone size … (BAA 279)” value [3, 8] was 16 mm, the “Inhibition zone size … (ATCC 1298)” value [4, 8] was 0 mm and the “Inhibition zone size … (ATCC 27010)” value [5, 8] was 33 mm. The “Inhibition zone size … (ATCC 19296)” value [6, 8] was 0 mm.
CCCCCCCCCCCCCCCCOP1(=O)OC[C@H]2COC(=O)C2=C(C)O1 (stereo partly shown) [Cyclipostin P] was tested, and the “minimum inhibitory concentration … (FH 6498)” value [1] was under 0.5, the “Inhibition zone size … (BAA 279)” value [3] was 28 mm and the “minimum inhibitory concentration (MIC), S. aureus (control strain)” value [2] was over 64. The “Inhibition zone size … (ATCC 1298)” value [4] was 35 mm, the “Inhibition zone size … (ATCC 27010)” value [5] was 10 mm and the “Inhibition zone size … (ATCC 19296)” value [6] was 47 mm.
